# According to patent US9566281B2 (Westfaelische Wilhelms-Universitaet, priority 2012, dated 2017):
# Several values for one entry are separate records, joined by “and”; a condition that tells them apart may be missing. Identical values can stand only once. Like-named read-outs stand apart in the source and are kept apart here.
# Tests used:
# influenza A virus = assay: Synergism of MEK inhibitor with Oseltamivir-carboxylate on A549 cells (combination index, CompuSyn); assay type: cell-based
# A/Anhui/1/2013 (H7N9) = assay: microbe, parasite or virus in culture; assay type: cell-based, influenza A virus
# [1] = test system: A/Mallard/Bavaria/01/2006 (MB1, H5N1); assay type: cell-based, influenza A virus; conditions: MDCK II, MOI 0.001, 24 h treatment, FIG. 6/7
# panH1N1 (RB1) = assay type: cell-based, influenza A virus
# FPV = assay type: cell-based
# [2] = patients taking oseltamivir; cited from earlier work
# colon carcinoma = conditions: oral administration, mouse model; cited from earlier work
# [3] = with Oseltamivir-carboxylate, ratio 1:1, A549
# [4] = with Oseltamivir-carboxylate, ratio 1:10, A549
compound,measurement,setting,value
CCCS(=O)(=O)Nc1ccc(F)c(C(=O)c2c[nH]c3ncc(-c4ccc(Cl)cc4)cc23)c1F [PLX-4032],CI value at ED75,influenza A virus; [3],0.3472
same,CI value at ED90,influenza A virus; [3],0.4332
same,CI value at ED95,influenza A virus; [3],0.5036
same,CI value at ED75,influenza A virus; [4],0.2305
same,CI value at ED90,influenza A virus; [4],0.2367
same,CI value at ED95,influenza A virus; [4],0.2413
same,antiviral potency,"A/Anhui/1/2013 (H7N9); A549, H7N9, FIGS. 13A and B",highly potent
same,EC50,"A/Anhui/1/2013 (H7N9); Influenza A virus, H7N9, A549, 24 h",12 µM
O=C(NOC[C@H](O)CO)c1ccc(F)c(F)c1Nc1ccc(I)cc1F [PD-0325901],antiviral potency in cell culture,[1],highly potent
same,antiviral potency,panH1N1 (RB1),potent
same,antiviral potency,FPV,potent
Cn1cnc2c(F)c(Nc3ccc(Br)cc3Cl)c(C(=O)NOCCO)cc21 [AZD-6244],CI value at ED75,influenza A virus,0.2086 and 0.1616
same,CI value at ED90,influenza A virus,0.2962 and 0.2330
same,CI value at ED95,influenza A virus,0.3760 and 0.2993
CC(=O)Nc1cccc(-n2c(=O)n(C3CC3)c(=O)c3c(Nc4ccc(I)cc4F)n(C)c(=O)c(C)c32)c1 [GSK-1120212],CI value at ED75,influenza A virus,0.4758
same,CI value at ED90,influenza A virus,0.4648
same,CI value at ED95,influenza A virus,0.4576
oseltamivir,patients experiencing nausea and vomiting,[2],10-15%
O=C(NOCC1CC1)c1ccc(F)c(F)c1Nc1ccc(I)cc1Cl [CI-1040],CI value at ED75,influenza A virus; [3],0.4010
same,CI value at ED90,influenza A virus; [3],0.3987
same,CI value at ED95,influenza A virus; [3],0.4412
same,antiviral potency in cell culture,[1],highly potent
same,antiviral potency,panH1N1 (RB1),potent
same,antiviral potency,FPV,potent
"O=C(NOCC1CC1)c1ccc(F)c(F)c1Nc1ccc(I)cc1Cl [PD184352, 2-(2-chloro-4-iodo-phenylamino)-N-cyclopropylmethoxy-3,4-difluoro-benzamide]",growth of colon carcinoma,colon carcinoma,efficiently inhibit
